Article PMC11477000, “Enantioselective Binding of Proton Pump Inhibitors to Alpha1-Acid Glycoprotein and Human Serum Albumin—A Chromatographic, Spectroscopic, and In Silico Study” (International Journal of Molecular Sciences, 2024)

Tests used:
[1] = biological target: human serum albumin (HSA) (Homo sapiens, UniProt P02768); assay: Displacement chromatography on HSA column with warfarin and ibuprofen as competitors; type: binding; conditions: IPA:10 mM pH 7 phosphate buffer 1:99, 25 °C
Protocol: For identification of the binding site of HSA, a displacement chromatography and fluorescence displacement study were performed. In the case of chromatography, to the mobile phase, increasing concentrations of the competitors, warfarin and ibuprofen, that are known to bind to specific binding sites on HSA, Sudlow site I and Sudlow site II, respectively, were added. In the case of the fluorescence displacement study, the fluorescence quenching data of the PPI-HSA system in the presence of warfarin and ibuprofen were investigated.
(Chromatographic parameter: Column temperature: 25 °C,
mobile phase: IPA : 10 mM pH 7 sodium phosphate buffer 1:99, flow rate: 0.7 mL/min, detection

[2] = test system: α1-acid glycoprotein (AGP); assay: HPLC on AGP-based chiral stationary phase (ChromTech Chiral-AGP column); type: binding, human; conditions: 10 mM pH 7 phosphate buffer, 25 °C
Protocol: HPLC using a protein-based chiral stationary phase is a fully automated method for obtaining rapid information about the binding of compounds to the respective proteins. Enantioseparation occurs in the case of unequal binding constants of the individual enantiomers to the immobilized proteins, thus allowing enantioselective binding to be characterized even when a racemic mixture was injected. As a preliminary step, the enantiospecific binding was investigated on columns containing AGP and HSA in various alcohol:buffer mixtures. A pH 7 phosphate buffer was employed as the aqueous part of the mobile phase, while for the organic part, three different alcohols were evaluated. […]
Chromatographic measurements were carried out on two separate HPLC systems. The AGP binding study was performed on a Waters 2695e chromatographic system paired with a Waters 2996 PDA detector, controlled by Empower 3 FR5 (Waters Corp., Milford, MA, USA), while the HSA binding study was performed on an Agilent 1100 HPLC system, consisting of an inline degasser (G1322A), a quaternary pump (G1311A), an automatic injector (G1329A) paired with sample thermostat (G1330A), a column thermostat (G1316A), and a diode array detector (G1315A) with Agilent Chemstation B04.03-SP2 software (Agilent, Bronnwald, Germany). For the binding studies, two protein-based chiral stationary phases were utilized. The chromatographic binding study for AGP was conducted on a ChromTech Chiral-AGP column (150 mm × 4.0 mm; ChromTech Ltd., Congleton, UK), while the binding study for HSA was performed on a Daicel Chiralpak HSA column (50 mm × 4.0 mm; Daicel Corp., Osaka, Japan). The detection wavelength was 210 nm for all measurements. The stock solutions of PPIs were prepared at a concentration of 1 mg/mL in MeOH. Subsequent dilutions were prepared using water. The injected samples were mixed and diluted from the stock solutions. The final concentration for the eutomer was 0.2 mg/mL, and for the distomer, it was 0.1 mg/mL. A volume of 2 μL was injected. To mitigate the instability of PPIs in aqueous solutions, the samples were kept at a temperature of 4 °C.

Chain of human serum albumin (HSA) (P02768 25-609): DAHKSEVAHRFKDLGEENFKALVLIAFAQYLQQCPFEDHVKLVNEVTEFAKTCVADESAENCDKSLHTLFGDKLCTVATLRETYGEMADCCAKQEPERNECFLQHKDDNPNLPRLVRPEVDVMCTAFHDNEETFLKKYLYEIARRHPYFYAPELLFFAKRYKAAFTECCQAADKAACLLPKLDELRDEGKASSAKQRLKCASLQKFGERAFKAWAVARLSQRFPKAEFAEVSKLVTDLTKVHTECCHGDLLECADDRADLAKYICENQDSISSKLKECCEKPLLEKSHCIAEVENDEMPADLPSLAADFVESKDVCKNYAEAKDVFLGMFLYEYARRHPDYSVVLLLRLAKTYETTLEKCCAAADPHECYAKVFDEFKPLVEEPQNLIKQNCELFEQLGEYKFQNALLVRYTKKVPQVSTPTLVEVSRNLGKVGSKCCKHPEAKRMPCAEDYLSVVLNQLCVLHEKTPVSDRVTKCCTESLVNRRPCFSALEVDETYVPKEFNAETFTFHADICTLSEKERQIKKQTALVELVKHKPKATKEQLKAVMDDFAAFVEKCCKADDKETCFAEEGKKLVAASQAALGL

SMILES	k retention factor ([1]; ibuprofen 0 mM)	k retention factor ([1]; ibuprofen 0.01 mM)	k retention factor ([1]; ibuprofen 0.05 mM)	k retention factor ([1]; ibuprofen 0.1 mM)	k retention factor ([1]; warfarin 0 mM)	k retention factor ([1]; warfarin 0.01 mM)	k retention factor ([1]; warfarin 0.05 mM)	k retention factor ([1]; warfarin 0.1 mM)	k1 retention factor (first-eluting enantiomer) ([2]; 2.5% IPA)	k2 retention factor (second-eluting enantiomer) ([2]; 2.5% IPA)	k1 retention factor (first-eluting enantiomer) ([2]; 5% EtOH)	k2 retention factor (second-eluting enantiomer) ([2]; 5% EtOH)	k1 retention factor (first-eluting enantiomer) ([2]; 5% IPA)	k2 retention factor (second-eluting enantiomer) ([2]; 5% IPA)	k1 retention factor (first-eluting enantiomer) ([2]; 5% MeOH)	k2 retention factor (second-eluting enantiomer) ([2]; 5% MeOH)	k1 retention factor (first-eluting enantiomer) ([2]; 7.5% EtOH)	k2 retention factor (second-eluting enantiomer) ([2]; 7.5% EtOH)	k2 retention factor (second-eluting enantiomer) ([2]; 7.5% IPA)	k1 retention factor (first-eluting enantiomer) ([2]; 7.5% MeOH)	other results
COc1ccc2[nH]c([S+]([O-])Cc3ncc(C)c(OC)c3C)nc2c1 (centres unmarked) [Omeprazole, omeprazole]	9.53	7.96	6.31	5.22	9.53	8.57	7.71	6.98	13.24	16.18	12.69	15.14	5.46	5.46	25.74	37.33	6.57	7.20	2.88	15.56	k1 retention factor (first-eluting enantiomer) ([2]; 7.5% IPA): 2.88; k2 retention factor (second-eluting enantiomer) ([2]; 7.5% MeOH): 21.41; k1 retention factor (first-eluting enantiomer) ([2]; 10% EtOH): 4.02; k2 retention factor (second-eluting enantiomer) ([2]; 10% EtOH): 4.02; k1 retention factor (first-eluting enantiomer) ([2]; 10% IPA): 1.87; k2 retention factor (second-eluting enantiomer) ([2]; 10% IPA): 1.87; k1 retention factor (first-eluting enantiomer) ([2]; 10% MeOH): 9.95; k2 retention factor (second-eluting enantiomer) ([2]; 10% MeOH): 13.05; k1 retention factor (first-eluting enantiomer) ([2]; 12.5% IPA): 1.33; k2 retention factor (second-eluting enantiomer) ([2]; 12.5% IPA): 1.33; k1 retention factor (first-eluting enantiomer) ([2]; 15% EtOH): 1.81; k2 retention factor (second-eluting enantiomer) ([2]; 15% EtOH): 1.81; k1 retention factor (first-eluting enantiomer) ([2]; 15% IPA): 1.01; k2 retention factor (second-eluting enantiomer) ([2]; 15% IPA): 1.01; k1 retention factor (first-eluting enantiomer) ([2]; 15% MeOH): 6.70; k2 retention factor (second-eluting enantiomer) ([2]; 15% MeOH): 8.43
COCCCOc1ccnc(C[S+]([O-])c2nc3ccccc3[nH]2)c1C (centres unmarked) [Rabeprazole, rabeprazole]	7.21	6.67	5.87	5.05	7.21	5.81	4.98	4.73	14.89	21.66	13.04	20.84	6.68	7.89	20.89	42.82	7.21	10.50	3.90	12.90	k2 retention factor (second-eluting enantiomer) ([2]; 7.5% MeOH): 26.14; k1 retention factor (first-eluting enantiomer) ([2]; 10% EtOH): 4.39; k2 retention factor (second-eluting enantiomer) ([2]; 10% EtOH): 5.89; k1 retention factor (first-eluting enantiomer) ([2]; 10% IPA): 2.47; k2 retention factor (second-eluting enantiomer) ([2]; 10% IPA): 2.47; k1 retention factor (first-eluting enantiomer) ([2]; 10% MeOH): 8.63; k2 retention factor (second-eluting enantiomer) ([2]; 10% MeOH): 16.71; k1 retention factor (first-eluting enantiomer) ([2]; 12.5% IPA): 1.72; k2 retention factor (second-eluting enantiomer) ([2]; 12.5% IPA): 1.72; k1 retention factor (first-eluting enantiomer) ([2]; 15% EtOH): 2.11; k2 retention factor (second-eluting enantiomer) ([2]; 15% EtOH): 2.48; k1 retention factor (first-eluting enantiomer) ([2]; 15% IPA): 1.27; k2 retention factor (second-eluting enantiomer) ([2]; 15% IPA): 1.27; k1 retention factor (first-eluting enantiomer) ([2]; 15% MeOH): 5.97; k2 retention factor (second-eluting enantiomer) ([2]; 15% MeOH): 11.00
